Biological target: T1, 5-hydroxytryptamine receptor 1A (Homo sapiens, UniProt P08908)
T1 sequence (P08908 whole entry): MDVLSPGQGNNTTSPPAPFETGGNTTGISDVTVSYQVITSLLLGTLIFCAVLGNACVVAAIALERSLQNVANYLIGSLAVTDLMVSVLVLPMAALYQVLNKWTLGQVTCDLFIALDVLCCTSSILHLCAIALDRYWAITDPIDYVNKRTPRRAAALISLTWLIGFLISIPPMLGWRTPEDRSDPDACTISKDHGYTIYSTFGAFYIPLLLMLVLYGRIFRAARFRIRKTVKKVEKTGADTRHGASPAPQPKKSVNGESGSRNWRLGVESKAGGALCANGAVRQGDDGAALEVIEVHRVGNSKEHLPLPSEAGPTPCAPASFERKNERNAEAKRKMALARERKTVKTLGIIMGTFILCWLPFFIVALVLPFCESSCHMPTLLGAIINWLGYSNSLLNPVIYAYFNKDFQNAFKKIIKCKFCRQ
Experiment: Binding affinity to 5HT1A receptor

Compound	Kd (read-out: pKd (converted))	Kd (read-out: Kd)
CCCN(CCC)[C@H]1CCc2c(F)ccc(O)c2C1	0.0251 µM	–
C=CCN1CC[C@H]2c3ccccc3CC[C@H]21	0.001 µM	–
COc1cccc2c1C[C@H]1CCN(CC3CC3)[C@@H]1C2	0.0316 µM	–
CCCN1CC[C@H]2c3c(cccc3OC)CC[C@H]21	0.0002 µM	–
C=CCN1C[C@H]2c3c(O)cccc3CC[C@H]21	0.000316 µM	–
COc1ccccc1N1CCN(C[C@@H](C(=O)NC(C)(C)C)c2ccccc2)CC1	0.00126 µM	–
COc1cccc2c1C[C@@H]1CCN(CC3CC3)[C@@H]1C2	0.794 µM	–
CCCN1CC[C@@H]2c3c(cccc3OC)CC[C@@H]21	0.2 µM	–
CN(C)CCc1c[nH]c2ccc(O)cc12 [BUFOTENINE]	0.00316 µM	–
Clc1cccc(N2CCNCC2)c1 [CHLOROPHENYLPIPERAZINE]	0.1 µM	–
FC(F)(F)c1cccc(C2CNCCO2)c1 (stereo not given) [FLUMEXADOL]	0.251 µM	–
O=C1c2ccccc2S(=O)(=O)N1CCCCN1CCN(c2ncccn2)CC1 [IPSAPIRONE]	0.00398 µM	–
CN1C[C@@H](NS(=O)(=O)N(C)C)C[C@@H]2c3cccc4c3c(cn4C)C[C@H]21 [MESULERGINE]	0.158 µM	–
Clc1cncc(N2CCNCC2)n1 [MK-212]	0.794 µM	–
O=C(NCCN1CCOCC1)c1ccc(Cl)cc1 [MOCLOBEMIDE]	5.01 µM	–
CCc1nn(CCCN2CCN(c3cccc(Cl)c3)CC2)c(=O)n1CCOc1ccccc1 [NEFAZODONE]	0.158 µM	–
Fc1ccc([C@@H]2CCNC[C@H]2COc2ccc3c(c2)OCO3)cc1 [PAROXETINE]	31.6 µM	30 µM
C[C@H]1[C@H](c2ccccc2)OCCN1C [PHENDIMETRAZINE]	12.6 µM	–
Cc1nc2ccccn2c(=O)c1CCN1CCC(C(=O)c2ccc(F)cc2)CC1 [PIRENPERONE]	2.51 µM	–

— ChEMBL document CHEMBL1155229, “Physical binding pocket induction for affinity prediction” (J Med Chem, 2009)
